Data taken from patent US20200347033A1, “MODULATORS OF THE INTEGRATED STRESS PATHWAY” (Calico Life Sciences LLC, priority 2017, published 2020).

Test system: HEK293T cells carrying the ATF4 luciferase reporter
Assay: ATF4-Luc assay (in vitro model of vanishing white matter disease)
Type: cell-based, human
Settings: Homo sapiens, HEK-293T; HEK293T cells with ATF4 5'-UTR firefly luciferase reporter; 1 μg/mL tunicamycin; 7 hours; One Glo luminescence
Protocol: In order to test exemplary compounds of the invention in a cellular context, a stable VWMD cell line was first constructed. The ATF4 reporter was prepared by fusing the human full-length ATF4 5′-UTR (NCBI Accession No. BC022088.2) in front of the firefly luciferase (FLuc) coding sequence lacking the initiator methionine as described in Sidrauski et al (eLife 2013). The construct was used to produce recombinant retroviruses using standard methods and the resulting viral supernatant was used to transduce HEK293T cells, which were then subsequently selected with puromycin to generate a stable cell line.
HEK293T cells carrying the ATF4 luciferase reporter were plated on polylysine coated 384-well plates (Greiner Bio-one) at 30,000 cells per well. Cells were treated the next day with 1 μg/mL tunicamycin and 200 nM of a compound of Formula (I) for 7 hours. Luminescence was measured using One Glo (Promega) as specified by the manufacturer. Cells were maintained in DMEM with L-glutamine supplemented with 10% heat-inactivated FBS (Gibco) and Antibiotic-Antimycotic solution (Gibco).
Table 2 below summarizes the EC50 data obtained using the ATF4-Luc assay for exemplary compounds of the invention.

Structure (SMILES) | EC50 [nM]
O=C(COc1ccc(Cl)c(F)c1)N[C@H]1CC[C@H](N2CCN(c3ccc(C(F)(F)F)cn3)C2=O)CC1 [Compound 132, 2-(4-chloro-3-fluorophenoxy)-N-[(1r,4r)-4-{2-oxo-3-[5-(trifluoromethyl)pyridin-2-yl]imidazolidin-1-yl}cyclohexyl]acetamide] | < 50
O=C(COc1ccc(Cl)c(F)c1)NC12CCC(N3CC(c4ccc(Cl)c(F)c4)CC3=O)(CC1)C[C@@H]2O (stereo partly drawn) [Compound 163, 2-(4-chloro-3-fluorophenoxy)-N-{(2S)-4-[4-(4-chloro-3-fluorophenyl)-2-oxopyrrolidin-1-yl]-2-hydroxybicyclo[2.2.2]octan-1-yl}acetamide] | < 50
CC1(c2ccc(Cl)cc2)CN=C(C23CC(NC(=O)COc4ccc(Cl)c(F)c4)(C2)C3)O1 (stereo not drawn) [Compound 164, 2-(4-chloro-3-fluorophenoxy)-N-{3-[5-(4-chlorophenyl)-5-methyl-4,5-dihydro-1,3-oxazol-2-yl]bicyclo[1.1.1]pentan-1-yl}acetamide] | 250 to 1000
O=C(COc1ccc(Cl)c(F)c1)NC12CC(N3CC(c4ccc(Cl)c(F)c4)=CC3=O)(C1)C2 [Compound 165, 2-(4-chloro-3-fluorophenoxy)-N-{3-[4-(4-chloro-3-fluorophenyl)-2-oxo-2,5-dihydro-1H-pyrrol-1-yl]bicyclo[1.1.1]pentan-1-yl}acetamide] | < 50
O=C(NC12CC(N3CC(c4ccc(Cl)c(F)c4)OC3=O)(C1)C2)c1cnc(C(F)F)cn1 (stereo not drawn) [Compound 166, N-{3-[5-(4-chloro-3-fluorophenyl)-2-oxo-1,3-oxazolidin-3-yl]bicyclo[1.1.1]pentan-1-yl}-5-(difluoromethyl)pyrazine-2-carboxamide] | > 2000
O=C(NC12CC(N3CC(c4ccc(Cl)c(F)c4)OC3=O)(C1)C2)c1cc(C(F)F)no1 (stereo not drawn) [Compound 167, N-{3-[5-(4-chloro-3-fluorophenyl)-2-oxo-1,3-oxazolidin-3-yl]bicyclo[1.1.1]pentan-1-yl}-3-(difluoromethyl)-1,2-oxazole-5-carboxamide] | > 2000
O=C(COc1ccc(Cl)c(F)c1)NC12CC(N3Cc4cc5ccccc5cc4C3=O)(C1)C2 [Compound 168, 2-(4-chloro-3-fluorophenoxy)-N-[3-(1-oxo-1,3-dihydro-2H-benzo[f]isoindol-2-yl)bicyclo[1.1.1]pentan-1-yl]acetamide] | 250 to 1000
O=C(COc1ccc(Cl)c(F)c1)NC12CC(N3CC(c4ccc(Cl)cc4)COC3=O)(C1)C2 (stereo not drawn) [Compound 169, 2-(4-chloro-3-fluorophenoxy)-N-{3-[5-(4-chlorophenyl)-2-oxo-1,3-oxazinan-3-yl]bicyclo[1.1.1]pentan-1-yl}acetamide] | 250 to 1000

Test system: not given
Assay: not given
Settings: not given

melting point [°C] | Structure (SMILES)
232 | O=C(COc1ccc(Cl)c(F)c1)N[C@H]1CC[C@H](N2CCN(c3ccc(C(F)(F)F)cn3)C2=O)CC1 [Compound 132, 2-(4-chloro-3-fluorophenoxy)-N-[(1r,4r)-4-{2-oxo-3-[5-(trifluoromethyl)pyridin-2-yl]imidazolidin-1-yl}cyclohexyl]acetamide]
